Data: patent US7601838B2, “2-Alkyl/aryl sulphonyl-1,2,3,4-tetrahydro-9H-pyrido (3,4-b) indole-3-carboxylic acid esters/amides useful as antithrombotic agents” (Council of Scientific and Industrial Research, priority 2004, dated 2009)

Columns and labels:
mouse-tail Bleeding time = assay: Effect on mouse-tail bleeding time; conditions: mice
Method: The tail 2 mm from tip was incised and the blood oozed was soaked with filter paper till the bleeding stops. The time elapsed from the tip incision to the stoppage of bleeding was determined as the bleeding time. Test compound (30 μM/kg), aspirin or vehicle was given orally 60 min prior to the tail incision. Each group consisted of 5 mice.

[1] = test system: collagen and epinephrine induced thrombosis in mice; assay: Effect on mouse thrombosis: collagen and adrenaline induced pulmonary thromboembolism; type: in vivo
Method: Pulmonary thromboembolism was induced by following a method of Diminno and Silver^(1). Test compounds (30 μM/Kg) or vehicle were administered orally 60 min prior to the thrombotic challenge. A mixture of collagen (150 μg/ml) and adrenaline (50 μg/mL) was administered by the rapid intravenous injection into the tail vein to induce hind limb paralysis or death. A group of 10 animals were used to evaluate the effect of test compound, while 5 mice were used to assess effect of a standard drug, aspirin and a group of vehicle treated (n=5) mice was also used each experiment.
% Protection was expressed as: […]
Ptest is the number of animals paralyzed/dead in the test compound-treated group, and Pcontrol is the number of animals paralyzed/dead in vehicle treated group.

rat platelet aggregation = assay: Ex vivo effect on rat platelet aggregation (PRP, aggregometer); type: cell-based, Sprague Dawley rats; conditions: 30 μM/kg ip; for % Aggregation / % Inhibition: rat PRP
Method: Sodium citrate: The blood was centrifuged at 275×g for 20 min and the platelet rich plasma (PRP) was collect. The remaining blood was further centrifuged at 1500 g for 15 min at 20° C. to obtain platelet poor plasma (PPP). The platelet count in the PRP was adjusted to 2×10^8 cells/ml by using PPP. Adenosine-5′-diphosphate (ADP), thrombin, collagen, calcium ionophore A23187 or phorbol myristate ester (PMA) induced aggregation was monitored on a dual channel aggregometer (Chrono-log, USA). The test compound was incubated with PRP or 5 min before the addition of aggregation on inducing agent. Percent inhibition of the test compounds at various concentrations was calculated as follows: […]
(§1) Effect on venous thrombosis model in rabbit: The selected compounds were evaluated at 10 μM/Kg and 30 μM/kg dose for their efficacy against stasis induced thrombosis in LPS treated rabbits. […] Ex vivo effect of selective compounds on rat platelet aggregation: Blood was collected in sodium citrate to obtain PRP and evaluate the ex vivo effect of selective compounds ((i), (ii), (iii) at 30 μM/kg administered by the ip route) against ADP, collagen, phorbol myristate ester (PMA) calcium ionophore (A23187), or thrombin induced aggregation. It was observed that all these compounds were consistent against collagen-induced platelet aggregation (Table 3). (iii) inhibited ADP (10 μM), collagen (10 μg/ml), PMA (1.5 μM), and thrombin (0.64 U/ml) induced platelet aggregation while no inhibition was found against calcium ionophore A23187 (2.5 μg/ml) induced platelet aggregation. […] Effect on clotting parameters: The selected compounds were also tested in vitro for their effect on thrombin time (TT), prothrombin time (PT) and activated partial thromboplastin time (aPTT) at 100 μg/ml and 200 μg/ml in vitro (Table 4). The test compounds at 100 μg/ml had no significant effect of on these parameters. Some effect was though seen on PT at 200 μg/ml concentration, but the concentration seems to be quite high.

[2] = test system: thrombin time (TT), prothrombin time (PT) and activated partial thromboplastin time (aPTT); assay: Evaluation of coagulation parameters (TT, PT, aPTT) in rat plasma in vitro; type: biochemical
Method: (§2) [formula] 1.4 Evaluation of coagulation parameters: Blood was collected by cardiac puncture from ether-anaesthetized rat using a syringe containing 3.2% tri-sodium citrate (9:1, v/v). Plasma was obtained by centrifugation of citrated blood at 2500×g for 15 min at 20° C. Stock solutions of the test compounds were prepared freshly in DMSO and were diluted in DMSO. Thrombin time (TT), prothrombin time (PT) and activated partial thromboplastin time (aPTT) were evaluated according to manufacturer's instructions supplied with kits (Stago, France) and measured by Coagulometer (Stago, France)^(4). In each set of experiment effect of DMSO on these parameters was also assessed and was used to calculate change in TT, PT or aPTT. 1.5 Rabbit venous thrombosis model: Experiments were performed on New Zealand white strain rabbits (2-3 kg) either sex. Escherichia coli LPS strain 1055:B5 (Sigma Chemicals, USA) was injected intravenously via ear vein (1 μg/kg)^(5,6). Jugular veins on both sides were exposed and dissected free from surrounding tissue. Two loose surer were placed 1.5 cm apart and all collateral veins were ligated. Four hours after E. coli endotoxin injection (animal is watched for any signs of hypersensitivity reaction during this period), stasis was established and maintained for 45 min by tightening the two sutures. Ligated segments were removed and opened longitudinally and the thrombus was carefully removed and weighed. Heparin sodium (Beparine from beef intestinal mucosa ≧140 USP units/mg; Biological E. Limited, India) was given in doses of (0.5, 0.25, 0.1 mg/kg i.v., via ear vein) 5 min before stasis. 1.6 Effect of compound (i) on human platelet aggregation in vitro: Platelet aggregation study was done on human platelets following isolation of PRP from the human blood as described above (1.3). Aggregation was induced by collagen (10 μg/ml, 5 μg/ml), ADP (10 μM) and thrombin (0.5 U/ml). 2. Results: Effect of test compounds is indicated in the following table (1) against collagen and epinephrine induced thrombosis in mice, which is a primary screening model to detect antithrombotic efficacy of the test agents. At the same dose these compounds were also evaluated for their effect on the bleeding time in mouse (Table 1).
as §1

[3] = test system: stasis induced thrombosis in LPS treated rabbits; assay: Rabbit venous thrombosis model (stasis induced thrombosis in LPS treated rabbits); type: in vivo, New Zealand white strain rabbits
Method: as §2, §1
Values are Mean±; Compound (i); n=2, Compound (ii); n=4, Compound (iii), n=4 [n is no. of observations in 2 or more animals at 10 μM/Kg or 30 μM/Kg p.o. administered 2 h prior to the stasis] or vehicle control [n=10 observations in five animals]. In heparin treated group n=6 observations for each dose in nine animals.

[4] = 30 μM/kg orally 60 min prior to collagen + adrenaline challenge
[5] = 10 μM/Kg dose p.o. 2 h prior to the stasis
[6] = 30 μM/Kg dose p.o. 2 h prior to the stasis

## COC(=O)C1Cc2c([nH]c3ccccc23)CN1S(=O)(=O)c1ccccc1C(F)(F)F (racemic) [j, 2[2-trifluoromethylbenzenesulfonyl]-1,2,3,4,-tetrahydro-9H-pyrido[3,4-b]in-dole-3-carboxylic acid ester]
mouse-tail Bleeding time; 30 μM/kg orally 60 min prior to tail incision
  Bleeding time (BT) % increase (1 hr): 150%
[1]; [4]
  Antithrombotic activity (AT) (% protection): 56%

## COc1ccc(S(=O)(=O)N2Cc3[nH]c4ccccc4c3CC2C(N)=O)cc1 (stereo not shown) [Compound (ii), 2[-4-methoxybenzenesulfonyl]-1,2,3,4,-tetrahydro-9H-pyrido[3,4-b]indole-3-carboxylic acid amide]
Rat platelet aggregation; A23187 (2.5 μg/ml) induced
  % Aggregation: 51 ± 5%
  % Inhibition: 54 ± 4%
Rat platelet aggregation; A23187 (2.5 μg/ml), rat
  inhibition of calcium ionophore A23187 induced platelet aggregation (in words): inhibited
Rat platelet aggregation; ADP (10 μM) induced
  % Aggregation: 35 ± 5%
  % Inhibition: 26 ± 10%
Rat platelet aggregation; ADP (10 μM), rat
  inhibition of ADP induced platelet aggregation (in words): inhibited
Rat platelet aggregation; Collagen (10 μg/ml) induced
  % Aggregation: 5 ± 1%
  % Inhibition: 79 ± 7%
Rat platelet aggregation; PMA (1.5 μM) induced
  % Aggregation: 44 ± 12%
  % Inhibition: 26 ± 0.3%
Rat platelet aggregation; PMA (1.5 μM), rat
  inhibition of PMA induced platelet aggregation (in words): inhibited
Rat platelet aggregation; Thrombin (0.64 U/ml) induced
  % Aggregation: 44 ± 10%
  % Inhibition: 4 ± 10%
Rat platelet aggregation; collagen (10 μg/ml), rat
  inhibition of collagen induced platelet aggregation (in words): inhibited
Rat platelet aggregation; thrombin (0.64 U/ml), rat
  inhibition of thrombin induced platelet aggregation (in words): did not inhibit
[2]; 100 μg/ml in vitro
  Activated partial thromboplastin time (aPTT) % Change: 13 ± 7%
  Prothrombin time (PT) % Change: 9 ± 5%
  Thrombin time (TT) % Change: 9 ± 5%
[2]; 200 μg/ml in vitro
  Activated partial thromboplastin time (aPTT) % Change: 11 ± 4%
  Prothrombin time (PT) % Change: 14 ± 7%
  Thrombin time (TT) % Change: 9 ± 4%
[3]; [5]
  % Reduction (thrombus wt.): −67%
  Thrombus wt.: 79 ± 9
[3]; [6]
  % Reduction (thrombus wt.): 88%
  Thrombus wt.: 5 ± 4
[1]; 30 μM/kg
  protection against collagen and epinephrine induced thrombosis (in words): exhibited significant protection
[1]; [4]
  Antithrombotic activity (AT) (% protection): 70 ± 10 (n = 3) %

## CC(=O)Oc1ccccc1C(=O)O [Aspirin, reference compound]
mouse-tail Bleeding time; 30 mg/Kg (aspirin)
  Bleeding time (BT) % increase (1 hr): 125 ± 6 (n = 30) %
[1]; 30 mg/Kg (aspirin, standard drug)
  Antithrombotic activity (AT) (% protection): 38 ± 3 (n = 24) %
